Reference: patent US10155802B2, “Locally-active anticoagulants and anti-inflammatory agents” (priority 2011, dated 2018)

Experiments:
[1] = test system: fresh blood withdrawn from rats with venous thrombosis; assay: Clotting time (aPTT) of fresh blood withdrawn from treated rats; type: in vivo; details: rat, 0.2 mg/kg bolus + 0.00433 mg/kg/min infusion; 20 minutes after administration versus before
Experimental: FIG. 23 illustrates the clotting times (aPTT) determined for fresh blood withdrawn from rats with venous thrombosis at three time points, the first before drug administration and vessel injury, the second at 20 minutes after FeCl3 application and the third 60 minutes following injection of the respective thrombin inhibitors. Clotting times (aPTT) are shown for different rats administered with each thrombin inhibitor, ZIP4 for MH2-wZIP4, ZIP5 for MH2-wZIP5 and T218 for BRI-T218. Dosage levels for every compound were 0.2 mg/kg for the single-bolus injection and 0.00433 mg/kg/min for the maintenance infusion,
Terminal blood samples were analyzed for aPTT within 15 to 30 minutes of collection using a Coag DX Analyzer with aPTT citrate cartridges (IDEXX Laboratories, Westbrook, Me., USA).

pooled human plasma = assay: Activated partial thromboplastin time (APTT) clotting assay; type: biochemical
Method in brief: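 Test compound diluted in HBS (20 mM HEPES, 150 mM NaCl, pH 7.4), mixed with pooled normal human plasma at 37 °C; APTT started with APTT reagent then CaCl2, PT with thromboplastin. APTT value is concentration giving 50% of maximum clotting delay (MCT50); PT IC50 is concentration prolonging clotting time by 50%.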

In the case of `CC[C@H](C)[C@H](N)C(=O)N[C@@H](CCCNC(=N)N)C(=O)N[C@@H](Cc1ccccc1)C(=O)N[C@H](C(=O)N[C@@H](CC(=O)O)C(=O)NCC(=O)N[C@@H](CCC(=O)O)C(=O)N[C@@H](Cc1c[nH]c2ccccc12)C(=O)N[C@H](C(=O)N[C@@H](Cc1c[nH]c2ccccc12)C(=O)N[C@@H](CC(=O)O)C(=O)N[C@@H](CC(=O)O)C(=O)N[C@@H](C)C(=O)N[C@H](C(=O)N[C@@H](CCCCN)C(=O)N[C@H](C(=O)N[C@@H](Cc1c[nH]c2ccccc12)C(=O)N[C@H](C(=O)N[C@@H](Cc1c[nH]c2ccccc12)C(=O)N[C@H](C(=O)N[C@@H](CCC(=O)O)C(=O)NCC(=O)N[C@@H](CC(=O)O)C(=O)N[C@@H](Cc1ccccc1)C(=O)N[C@@H](CCC(=O)O)C(=O)N[C@@H](CCC(=O)O)C(=O)N[C@H](C(=O)N1CCC[C@H]1C(=O)N[C@@H](CCC(=O)O)C(=O)N[C@@H](CCC(=O)O)C(=O)N[C@@H](Cc1ccc(O)cc1)C(=O)N[C@@H](CC(C)C)C(=O)N[C@@H](CCC(N)=O)C(=O)O)[C@@H](C)CC)[C@@H](C)O)[C@@H](C)O)[C@@H](C)O)[C@@H](C)O)[C@@H](C)O)[C@@H](C)O` [MH2-wZIP4], the “clotting time (aPTT), systemic anticoagulant effect” value [1] is reported as “only a slight prolongation of the clotting time (aPTT)”, the EC50 (pooled human plasma; 37° C., concentration for 50% of maximum delay in clotting time, read-out: MTC50 (APTT)) is reported as 8 µM and the “dose response in APTT assays” value (pooled human plasma; in words) is reported as “saturable dose response”.
